Results on 16 compounds are retold here after patent US9227962B2, “Heterocyclic substituted-3-heteroarylidenyl-2-indolinone derivative” (Dainippon Sumitomo Pharma Co., Ltd., priority 2013, dated 2016).

Data set [1] is described as follows: solubility in buffer solution, HPLC. It counts as physicochemical. As to conditions: kinetic from dmso stock. Here is the method: A solution of compounds (10 mM in dimethylsulfoxide, 2 μL) was diluted with 50% acetonitrile (198 μL), and this solution was used as a standard solution.
On the other hand, a solution of compounds (10 mM in dimethylsulfoxide, 15 μL) was transferred to a 96 well plate, then solvent was removed in vacuo. Dimethyl sulfoxide (3 μL) was added to dissolve a residual solid, and then buffer solution (pH7.4 or 1.2, 300 μL) was added. The mixture was vigorously stirred for 90 min, then leave it for 16-20 h. An insoluble material was removed, then the solution was analyzed by HPLC. The concentration of compound, which was corresponding to a solubility of the compound, was determined by the comparison with area value between sample and the standard solution.

The subject of data set [2] is CD44high FaDu cancer stem cells. The data set can be described thus: sphere assay (sphere formation of CSC). The class given is cell-based. As to conditions: Homo sapiens, spheres scored after 10-14 days. The text has this:
CSC isolation with surface markers: Sorting tumor cells based primarily upon the differential expression of the surface marker(s), such as CD44 or CD133, have accounted for the majority of the highly tumorigenic CSCs described to date. CD44^high cells were isolated by FACS according to the methods described in Ponti et al, with slight modification [Ponti, D., et al, Isolation and in vitro propagation of tumorigenic breast cancer cells with stem/progenitor cell properties. Cancer Res, 2005. 65(13); p. 5506-11.], Briefly, after trypsinization and recovery of cells for 30 minutes at 37° C. in growth media, cells were pelleted at 400×g and were resuspended in PBS with 2% FBS and ImM EDTA at 1×10^6 cells/mL. Cells were then incubated on ice with a 1:100 dilution of CD44-FITC (BD Biosicences, San Diego, Calif.) for 15 minutes. Alternatively, CD24-PE (BD Bioscences, San Diego, Calif.) (1:100) was utilized for negative selection. After washing three times, cells were resuspended at […] and passed through a […] before sorting.
Sphere assay: A reliable method of measuring the self-renewal capacity of cell population if the ability to be cultured as spheres in the absence of serum or attachment. CD44^high FaDu cancer stem cells were cultured in ultra low attachment plates in cancer stem cell media (DMEM/F12, B27 Neurobasal supplement, 20 ng/ml EGF, 10 ng/rnl FGF, 4 µg/ml insulin, and 0.4% BSA) to allow spheres formation. Typically, sphere formation was evaluated by microscopy after 10-14 days in culture and spheres with >50 cells were scored.

A further data set concerns FaDu. The data set can be described thus: colony formation assay (cell viability determination). The note with it: Homo sapiens; FaDu cells, colonies counted after 7-10 days; read-out: colonyformation IC50. The class given is cell-based. How it is done:
Cell Culture: FaDu (ATCC, Manassas, Va.) was maintained in Dulbecco's Modified Eagle Medium (DMEM) (Invitrogen, Carlsbad, Calif.) supplemented with 10% fetal bovine serum (FBS) (Gemini Bio-Products, West Sacramento, Calif.) and 5% penicillin/streptomycin/amphotercin B (Invitrogen).
Cell Viability Determination: For colony formation assay, cells were plated in 6 well plates at 2000 cells per well. Twenty-four hours after plating, cells were treated with compound. Colonies were allowed to develop for 7-10 days, at which they were stained with modified Giemsa stain (Sigma). Stained colonies were then counted to determine IC50.

Setting [3] is: aqueous buffer, buffer solution pH 7.4, read-out: solubility pH 7.4.
Where [4] appears, read: simulated gastric fluid, buffer solution pH 1.2, read-out: solubility pH 1.2.

Each structure is given as a SMILES string. Values after ≈ are worked out from the molar mass of the structure shown. Like-named read-outs stand apart in the source and are kept apart here.

On to `CCN(CC)CCNC(=O)c1c(C)[nH]c(/C=C2\C(=O)Nc3ccc(-c4nnc(-c5ccccc5)s4)cc32)c1C` [Example 52], for which the solubility in data set [1] (setting [3]) was 4 µg/mL (≈ 7.4 µM); in data set [1] (setting [4]) it was 163 µg/mL (≈ 301 µM).
Taken in the same sequence, the figures for `CCN(CC)CCNC(=O)c1c(C)[nH]c(/C=C2\C(=O)Nc3ccc(-c4ccc(-c5cccnc5)s4)cc32)c1C` [Example 26] were under 0.5 µg/mL and over 200 µg/mL.
The corresponding values for `CCN(CC)CCNC(=O)c1c(C)[nH]c(/C=C2\C(=O)Nc3ccc(-c4nnc(-c5ccccc5)o4)cc32)c1C` [Example 53] are 61 µg/mL (≈ 116 µM) and over 200 µg/mL.
In turn, `CCN(CC)CCNC(=O)c1c(C)[nH]c(/C=C2\C(=O)Nc3ccc(C4CCN(C5CCN(C(C)=O)CC5)CC4)cc32)c1C` [Example 45] had an IC50 in data set [2] of over 50000 nM.
As to `CCN(CC)CCNC(=O)c1c(C)[nH]c(/C=C2\C(=O)Nc3ccc(C4CCN(c5ccccc5)CC4)cc32)c1C` [Example 42], the solubility in data set [1] (setting [3]) is 11 µg/mL (≈ 20.4 µM); in data set [1] (setting [4]), over 200 µg/mL.
`CCN(CC)CCNC(=O)c1c(C)[nH]c(/C=C2\C(=O)Nc3ccc(-n4cc(-c5ccccc5)nn4)cc32)c1C` [Example 49]: the solubility is 13 µg/mL (≈ 24.8 µM) in data set [1] (setting [3]) and 109 µg/mL (≈ 208 µM) in data set [1] (setting [4]).
Regarding `CCN(CC)CCNC(=O)c1c(C)[nH]c(/C=C2\C(=O)Nc3ccc(C4CCN(c5ncccn5)CC4)cc32)c1C` [Example 43], in data set [2], half-maximal inhibition (IC50) was put at 1900 nM. Further, the results for the solubility in data set [1] (setting [3]) and in data set [1] (setting [4]) were 0.4 µg/mL (≈ 0.738 µM) and 163 µg/mL (≈ 301 µM), respectively.
For the compound `CCN(CC)CCNC(=O)c1c(C)[nH]c(/C=C2\C(=O)Nc3ccc(-c4nc(-c5ccccc5)n[nH]4)cc32)c1C` [Example 50], the solubility in data set [1] (setting [3]) is 7 µg/mL (≈ 13.4 µM); in data set [1] (setting [4]), 154 µg/mL (≈ 294 µM).
`CCN(CC)CCNC(=O)c1c(C)[nH]c(/C=C2\C(=O)Nc3ccc(-c4cn(-c5ccccc5)nn4)cc32)c1C` [Example 48]: the solubility is under 0.3 µg/mL in data set [1] (setting [3]) and 147 µg/mL (≈ 281 µM) in data set [1] (setting [4]).
On to `Cc1[nH]c(/C=C2\C(=O)Nc3ccc(-c4cnn(-c5ccccn5)c4)cc32)c(C)c1C(=O)N1CCOCC1` [Example 30], for which, in the data set on FaDu, the IC50 is over 100000 nM.
For the compound `CCN(CC)CCNC(=O)c1c(C)[nH]c(/C=C2\C(=O)Nc3ccc(-c4nc(-c5ccccc5)cs4)cc32)c1C` [Example 51, (Z)—N-(2-(diethylamino)ethyl)-2,4-dimethyl-5-((2-oxo-5-(4-phenylthiazol-2-yl)indolin-3-ylidene)methyl)-1H-pyrrole-3-carboxamide], the solubility in data set [1] (setting [3]) is under 0.5 µg/mL; in data set [1] (setting [4]), over 200 µg/mL.
The corresponding values for `CCN(CC)CCNC(=O)c1c(C)[nH]c(/C=C2\C(=O)Nc3ccc(-c4cnc(-c5ccccc5)[nH]4)cc32)c1C` [Example 41] are 0.3 µg/mL (≈ 0.574 µM) and 186 µg/mL (≈ 356 µM).
`Cc1[nH]c(/C=C2\C(=O)Nc3ccc(-c4cnn(-c5ccccn5)c4)cc32)c(C)c1C(=O)N1CCN(C)CC1` [Example 31] displayed an IC50 in data set [2] of 200 nM.
In data set [2], `CCN(CC)CCNC(=O)c1c(C)[nH]c(/C=C2\C(=O)Nc3ccc(C4CCN(C5CCOCC5)CC4)cc32)c1C` [Example 12] gave an IC50 of over 50000 nM. In addition, the solubility in data set [1] (setting [3]) and in data set [1] (setting [4]) was over 200 µg/mL each time.
For `CCN(CC)CCNC(=O)c1c(C)[nH]c(/C=C2\C(=O)Nc3ccc(-c4cc(-c5ccccc5)nn4C)cc32)c1C` [Example 55], the solubility in data set [1] (setting [3]) is 0.5 µg/mL (≈ 0.932 µM); in data set [1] (setting [4]), 43 µg/mL (≈ 80.1 µM).
With `Cc1nc(-c2ccccc2)oc1-c1ccc2c(c1)NC(=O)/C2=C\c1[nH]c(C)c(C(=O)N2CCN(C)CC2)c1C` [Example 38], the IC50 turned out to be 2000 nM in data set [2] and 6200 nM in the data set on FaDu.
